Source: PubChem BioAssay AID2060498 (Molecular Pharmacology Branch, DTP, NCI, 2025)
Blank lines part the entries; values can stand above or below the molecule they belong to.

Test system: 171881-019-R-J1-PDC tumor spheroids, viability
Experiment: Anticancer human tumor 171881-019-R-J1-PDC patient-derived invasive breast carcinoma cell line growth inhibition [GQUAD]
Conditions: spheroids with HUVEC and MSC; for IC50: curve of first compound; for viability, T/C: stronger effect = lower value
How it was run: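 Tumor cells were grown as complex spheroids with HUVEC endothelial cells and mesenchymal stem cells as stroma. G-quadruplex stabilizers were combined with targeted agents over half-log dilutions from near the clinical Cmax, or from 10 microM.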

[1] = second compound 0.0316 µM, first compound 0.0316 µM
[2] = second compound 0.0316 µM, first compound 0.1 µM
[3] = second compound 0.0316 µM, first compound 0.316 µM
[4] = second compound 0.0316 µM, first compound 1 µM
[5] = second compound 0.0316 µM, first compound 3.16 µM
[6] = second compound 0.0316 µM, first compound 10 µM
[7] = second compound 0.1 µM, first compound 0.0316 µM
[8] = second compound 0.1 µM, first compound 0.1 µM
[9] = second compound 0.1 µM, first compound 0.316 µM
[10] = second compound 0.1 µM, first compound 1 µM
[11] = second compound 0.1 µM, first compound 3.16 µM
[12] = second compound 0.1 µM, first compound 10 µM
[13] = second compound 0.316 µM, first compound 0.0316 µM
[14] = second compound 0.316 µM, first compound 0.1 µM
[15] = second compound 0.316 µM, first compound 0.316 µM
[16] = second compound 0.316 µM, first compound 1 µM
[17] = second compound 0.316 µM, first compound 3.16 µM
[18] = second compound 0.316 µM, first compound 10 µM
[19] = second compound 1 µM, first compound 0.0316 µM
[20] = second compound 1 µM, first compound 0.1 µM
[21] = second compound 1 µM, first compound 0.316 µM
[22] = second compound 1 µM, first compound 1 µM
[23] = second compound 1 µM, first compound 3.16 µM
[24] = second compound 1 µM, first compound 10 µM
[25] = second compound 3.16 µM, first compound 0.0316 µM
[26] = second compound 3.16 µM, first compound 0.1 µM
[27] = second compound 3.16 µM, first compound 0.316 µM
[28] = second compound 3.16 µM, first compound 1 µM
[29] = second compound 3.16 µM, first compound 3.16 µM
[30] = second compound 3.16 µM, first compound 10 µM
[31] = second compound 10 µM, first compound 0.0316 µM
[32] = second compound 10 µM, first compound 0.1 µM
[33] = second compound 10 µM, first compound 0.316 µM
[34] = second compound 10 µM, first compound 1 µM
[35] = second compound 10 µM, first compound 3.16 µM
[36] = second compound 10 µM, first compound 10 µM
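Also: spheroids exposed to compounds for 7 days.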
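For viability, T/C in this document: 100% = DMSO vehicle control viability.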

IC50 (second compound 0.0316 µM): 652 nM | IC50 (second compound 0.1 µM): 541 nM | IC50 (second compound 0.316 µM): 428 nM | IC50 (second compound 1 µM): 496 nM | IC50 (second compound 3.16 µM): 566 nM | IC50 (second compound 10 µM): 358 nM
SMILES: C=CCn1c(=O)c2cnc(Nc3ccc(N4CCN(C)CC4)cc3)nc2n1-c1cccc(C(C)(C)O)n1 + Cc1cnc(CNC(=O)c2c(=O)c3ccc(N4CCCN(C)CC4)nc3n3c2sc2ccccc23)cn1
viability, T/C [1]: 106% | viability, T/C [2]: 84.2% | viability, T/C [3]: 74.9% | viability, T/C [4]: 36.3% | viability, T/C [5]: 19.9% | viability, T/C [6]: 23.3% | viability, T/C [7]: 72.9% | viability, T/C [8]: 76% | viability, T/C [9]: 60.6% | viability, T/C [10]: 37.3% | viability, T/C [11]: 22.6% | viability, T/C [12]: 22.2% | viability, T/C [13]: 72.1% | viability, T/C [14]: 68.6% | viability, T/C [15]: 55.7% | viability, T/C [16]: 34.3% | viability, T/C [17]: 26.1% | viability, T/C [18]: 24.8% | viability, T/C [19]: 66.5% | viability, T/C [20]: 60.4% | viability, T/C [21]: 56.6% | viability, T/C [22]: 41.3% | viability, T/C [23]: 31.1% | viability, T/C [24]: 28.1% | viability, T/C [25]: 66.1% | viability, T/C [26]: 58% | viability, T/C [27]: 58.5% | viability, T/C [28]: 42.3% | viability, T/C [29]: 36.6% | viability, T/C [30]: 35.3% | viability, T/C [31]: 57.4% | viability, T/C [32]: 54.6% | viability, T/C [33]: 50.2% | viability, T/C [34]: 48.7% | viability, T/C [35]: 36.4% | viability, T/C [36]: 36%

IC50 (second compound 0.0316 µM): 1620 nM | IC50 (second compound 0.1 µM): 1710 nM | IC50 (second compound 0.316 µM): 1470 nM | IC50 (second compound 1 µM): 1190 nM | IC50 (second compound 3.16 µM): 1070 nM | IC50 (second compound 10 µM): 927 nM
SMILES: CC(C)(O)C1CCC(Nc2ccc3ncc(-c4cccc(C(F)(F)F)c4)n3n2)CC1 (stereo not drawn) + Cc1cnc(CNC(=O)c2c(=O)c3ccc(N4CCCN(C)CC4)nc3n3c2sc2ccccc23)cn1
viability, T/C [1]: 95.8% | viability, T/C [2]: 87.5% | viability, T/C [3]: 89.5% | viability, T/C [4]: 69.7% | viability, T/C [5]: 18.2% | viability, T/C [6]: 26.9% | viability, T/C [7]: 88.7% | viability, T/C [8]: 83.8% | viability, T/C [9]: 70.9% | viability, T/C [10]: 73.4% | viability, T/C [11]: 19% | viability, T/C [12]: 27.2% | viability, T/C [13]: 76.5% | viability, T/C [14]: 76.7% | viability, T/C [15]: 72% | viability, T/C [16]: 63.1% | viability, T/C [17]: 21.9% | viability, T/C [18]: 25.7% | viability, T/C [19]: 71.9% | viability, T/C [20]: 65.2% | viability, T/C [21]: 72.9% | viability, T/C [22]: 56.3% | viability, T/C [23]: 13.6% | viability, T/C [24]: 18% | viability, T/C [25]: 65.4% | viability, T/C [26]: 60% | viability, T/C [27]: 63.1% | viability, T/C [28]: 53.1% | viability, T/C [29]: 0.32% | viability, T/C [30]: 0.82% | viability, T/C [31]: 59.3% | viability, T/C [32]: 62.5% | viability, T/C [33]: 58.1% | viability, T/C [34]: 49.3% | viability, T/C [35]: 0.4% | viability, T/C [36]: 0.62%

IC50 (second compound 0.0316 µM): > 10000 nM | IC50 (second compound 0.1 µM): > 10000 nM | IC50 (second compound 0.316 µM): > 10000 nM | IC50 (second compound 1 µM): > 10000 nM | IC50 (second compound 3.16 µM): > 10000 nM | IC50 (second compound 10 µM): > 10000 nM
SMILES: COc1ncnc(C2CC2)c1-c1ncc2cnn(Cc3ccc(-c4nc(C(F)(F)F)cn4C(C)C)cc3)c2n1 + Cc1cnc(CNC(=O)c2c(=O)c3ccc(N4CCCN(C)CC4)nc3n3c2sc2ccccc23)cn1
viability, T/C [1]: 93.6% | viability, T/C [2]: 85.3% | viability, T/C [3]: 82.4% | viability, T/C [4]: 85.4% | viability, T/C [5]: 92% | viability, T/C [6]: 87% | viability, T/C [7]: 76.2% | viability, T/C [8]: 83% | viability, T/C [9]: 70% | viability, T/C [10]: 81.7% | viability, T/C [11]: 73.9% | viability, T/C [12]: 71.2% | viability, T/C [13]: 72.1% | viability, T/C [14]: 74.3% | viability, T/C [15]: 69.5% | viability, T/C [16]: 65.8% | viability, T/C [17]: 71.1% | viability, T/C [18]: 63.3% | viability, T/C [19]: 69% | viability, T/C [20]: 61.3% | viability, T/C [21]: 62.3% | viability, T/C [22]: 62.6% | viability, T/C [23]: 63.5% | viability, T/C [24]: 66.2% | viability, T/C [25]: 67.3% | viability, T/C [26]: 57.6% | viability, T/C [27]: 61.2% | viability, T/C [28]: 56.4% | viability, T/C [29]: 62% | viability, T/C [30]: 66.2% | viability, T/C [31]: 53.4% | viability, T/C [32]: 56.9% | viability, T/C [33]: 54.2% | viability, T/C [34]: 57.3% | viability, T/C [35]: 63.1% | viability, T/C [36]: 56.3%

IC50 (second compound 0.0316 µM): 167 nM | IC50 (second compound 0.1 µM): 194 nM | IC50 (second compound 0.316 µM): 160 nM | IC50 (second compound 1 µM): 148 nM | IC50 (second compound 3.16 µM): 118 nM | IC50 (second compound 10 µM): 111 nM
SMILES: O=C(NO)c1cnc(N2CCN(S(=O)(=O)c3ccc4ccccc4c3)CC2)nc1 + Cc1cnc(CNC(=O)c2c(=O)c3ccc(N4CCCN(C)CC4)nc3n3c2sc2ccccc23)cn1
viability, T/C [1]: 81.5% | viability, T/C [2]: 60.9% | viability, T/C [3]: 36.3% | viability, T/C [4]: 2.76% | viability, T/C [5]: 0.43% | viability, T/C [6]: 0.3% | viability, T/C [7]: 75.5% | viability, T/C [8]: 68.2% | viability, T/C [9]: 36.2% | viability, T/C [10]: 2.32% | viability, T/C [11]: 0.07% | viability, T/C [12]: 0.41% | viability, T/C [13]: 60.8% | viability, T/C [14]: 61.7% | viability, T/C [15]: 33.8% | viability, T/C [16]: 1.48% | viability, T/C [17]: 0.32% | viability, T/C [18]: 0.45% | viability, T/C [19]: 67% | viability, T/C [20]: 57.1% | viability, T/C [21]: 32.3% | viability, T/C [22]: 0.14% | viability, T/C [23]: 0.48% | viability, T/C [24]: 0.09% | viability, T/C [25]: 60% | viability, T/C [26]: 51.9% | viability, T/C [27]: 27.6% | viability, T/C [28]: 0.22% | viability, T/C [29]: 0.63% | viability, T/C [30]: 0.36% | viability, T/C [31]: 52.8% | viability, T/C [32]: 52.5% | viability, T/C [33]: 23.7% | viability, T/C [34]: 0.3% | viability, T/C [35]: 0.83% | viability, T/C [36]: 0.13%
